The assay concerns the target T1, recombinant human 11 β-HSD1 (Homo sapiens, UniProt P28845).
T1 construct: made in house; host or cells: E. coli
The assay can be described thus: 11 β-HSD1 SPA Assay (Scintillation Proximity Assay). Type of assay: biochemical. Summed up:
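E. coli-expressed human enzyme (30-100 nM) with tritiated cortisone 40 nM and NADPH 1 mM in HEPES buffer pH7.4, 2 hours at room temperature. Stopped with protein A SPA beads carrying anti-cortisol antibody and glycyrrhetinic acid; counted after overnight incubation. IC50 from percent inhibition between no-enzyme and no-compound signals.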

The term IC50 denotes the midpoint of a concentration-inhibition curve.

T1 sequence (P28845 whole entry): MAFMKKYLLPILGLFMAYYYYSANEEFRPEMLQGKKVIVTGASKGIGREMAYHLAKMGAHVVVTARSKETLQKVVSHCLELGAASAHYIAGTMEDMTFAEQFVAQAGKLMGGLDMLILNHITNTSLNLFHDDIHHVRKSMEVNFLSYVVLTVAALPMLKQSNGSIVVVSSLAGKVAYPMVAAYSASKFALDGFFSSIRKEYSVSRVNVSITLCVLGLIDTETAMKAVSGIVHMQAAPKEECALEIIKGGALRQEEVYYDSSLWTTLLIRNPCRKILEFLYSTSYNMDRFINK

With `CC(C)(Oc1ccc(Cl)cc1)C(=O)N[C@H]1C[C@H]2CC[C@@H](C1)N2c1ccc(S(C)(=O)=O)cc1` [Example 203, 2-[(4-chlorophenyl)oxy]-2-methyl-N-{8-[4-(methylsulfonyl)phenyl]-8-azabicyclo[3.2.1]oct-3-endo-yl}propanamide], the IC50 is under 2000 nM.

Turning to `CC(C)(Oc1ccc(Cl)c(Cl)c1)C(=O)N[C@H]1C[C@H]2CC[C@@H](C1)N2c1ccc(S(C)(=O)=O)cn1` [Example 204, 2-[(3,4-dichlorophenyl)oxy]-2-methyl-N-{8-[5-(methylsulfonyl)pyridin-2-yl]-8-azabicyclo[3.2.1]oct-3-endo-yl}propanamide], the IC50 was under 200 nM.

On to `CC(C)(Oc1ccc(Cl)c(Cl)c1)C(=O)N[C@H]1C[C@H]2CC[C@@H](C1)N2c1ccc(S(N)(=O)=O)cn1` [Example 205, N-{8-[5-(aminosulfonyl)pyridin-2-yl]-8-azabicyclo[3.2.1]oct-3-endo-yl}-2-[(3,4-dichlorophenyl)oxy]-2-methylpropanamide], for which the IC50 is under 200 nM.

Turning to `CC(C)(Oc1ccc(Cl)c(Cl)c1)C(=O)N[C@H]1C[C@H]2CC[C@@H](C1)N2c1ccc(S(C)(=O)=O)cc1` [Example 206, 2-[(3,4-dichlorophenyl)oxy]-2-methyl-N-{8-[4-(methylsulfonyl)phenyl]-8-azabicyclo[3.2.1]oct-3-endo-yl}propanamide], the half-inhibitory concentration (IC50) is under 2000 nM.

On to `CC(C)(Oc1ccc(F)c(F)c1)C(=O)N[C@H]1C[C@H]2CC[C@@H](C1)N2c1ccc(S(C)(=O)=O)cn1` [Example 207, 2-[(3,4-difluorophenyl)oxy]-2-methyl-N-{8-[5-(methylsulfonyl)pyridin-2-yl]-8-azabicyclo[3.2.1]oct-3-endo-yl}propanamide], for which the IC50 was under 2000 nM.

For `CC(C)(Oc1ccc(F)c(F)c1)C(=O)N[C@H]1C[C@H]2CC[C@@H](C1)N2c1ccc(S(N)(=O)=O)cn1` [Example 208, N-{8-[5-(aminosulfonyl)pyridin-2-yl]-8-azabicyclo[3.2.1]oct-3-endo-yl}-2-[(3,4-difluorophenyl)oxy]-2-methylpropanamide], the IC50 was under 2000 nM.

For `CC(C)(Oc1ccc(F)c(F)c1)C(=O)N[C@H]1C[C@H]2CC[C@@H](C1)N2c1ccc(S(C)(=O)=O)cc1` [Example 209, 2-[(3,4-difluorophenyl)oxy]-2-methyl-N-{8-[4-(methylsulfonyl)phenyl]-8-azabicyclo[3.2.1]oct-3-endo-yl}propanamide], the 50% inhibitory concentration (IC50) is under 2000 nM.

Consider `CC(C)(Oc1ccc(F)c(F)c1)C(=O)N[C@H]1C[C@H]2CC[C@@H](C1)N2c1ccc(C(=O)NCC(F)(F)F)cc1` [Example 210, 4-[3-endo-({2-[(3,4-difluorophenyl)oxy]-2-methylpropanoyl}amino)-8-azabicyclo[3.2.1]oct-8-yl]-N-(2,2,2-trifluoroethyl)benzamide], for which the IC50 is under 200 nM.

In the case of `CC(C)(Oc1ccc(Cl)cc1C(F)(F)F)C(=O)N[C@H]1C[C@H]2CC[C@@H](C1)N2c1ccc(S(N)(=O)=O)cn1` [Example 211, N-{8-[5-(aminosulfonyl)pyridin-2-yl]-8-azabicyclo[3.2.1]oct-3-endo-yl}-2-{[4-chloro-2-(trifluoromethyl)phenyl]oxy}-2-methylpropanamide], the IC50 was under 200 nM.

Consider `Cc1ccc(OC(C)(C)C(=O)N[C@H]2C[C@H]3CC[C@@H](C2)N3c2ccc(S(C)(=O)=O)cn2)c(Cl)c1` [Example 212, 2-[(2-chloro-4-methylphenyl)oxy]-2-methyl-N-{8-[5-(methylsulfonyl)pyridin-2-yl]-8-azabicyclo[3.2.1]oct-3-endo-yl}propanamide], for which the IC50 was under 200 nM.

Take `Cc1ccc(OC(C)(C)C(=O)N[C@H]2C[C@H]3CC[C@@H](C2)N3c2ccc(S(N)(=O)=O)cn2)c(Cl)c1` [Example 213, N-{8-[5-(aminosulfonyl)pyridin-2-yl]-8-azabicyclo[3.2.1]oct-3-endo-yl}-2-[(2-chloro-4-methylphenyl)oxy]-2-methylpropanamide]: the IC50 is under 200 nM.

As to `Cc1ccc(OC(C)(C)C(=O)N[C@H]2C[C@H]3CC[C@@H](C2)N3c2ccc(S(C)(=O)=O)cc2)c(Cl)c1` [Example 214, 2-[(2-chloro-4-methylphenyl)oxy]-2-methyl-N-{8-[4-(methylsulfonyl)phenyl]-8-azabicyclo[3.2.1]oct-3-endo-yl}propanamide], the IC50 is under 200 nM.

For `CC(C)(Oc1ccc(F)c(Cl)c1Cl)C(=O)N[C@H]1C[C@H]2CC[C@@H](C1)N2c1ccc(S(N)(=O)=O)cn1` [Example 215, N-{8-[5-(aminosulfonyl)pyridin-2-yl]-8-azabicyclo[3.2.1]oct-3-endo-yl}-2-[(2,3-dichloro-4-fluorophenyl)oxy]-2-methylpropanamide], the IC50 is under 200 nM.

Regarding `CC(C)(Oc1cc(F)c(F)cc1F)C(=O)N[C@H]1C[C@H]2CC[C@@H](C1)N2c1ccc(S(N)(=O)=O)cn1` [Example 216, N-{8-[5-(aminosulfonyl)pyridin-2-yl]-8-azabicyclo[3.2.1]oct-3-endo-yl}-2-methyl-2-[(2,4,5-trifluorophenyl)oxy]propanamide], the 50% inhibitory concentration (IC50) was under 200 nM.

As to `Cc1cc(F)ccc1OC(C)(C)C(=O)N[C@H]1C[C@H]2CC[C@@H](C1)N2c1ccc(S(C)(=O)=O)cn1` [Example 217, 2-[(4-fluoro-2-methylphenyl)oxy]-2-methyl-N-{8-[5-(methylsulfonyl)pyridin-2-yl]-8-azabicyclo[3.2.1]oct-3-endo-yl}propanamide], the IC50 is under 200 nM.

Take `Cc1cc(F)ccc1OC(C)(C)C(=O)N[C@H]1C[C@H]2CC[C@@H](C1)N2c1ccc(S(N)(=O)=O)cn1` [Example 218, N-{8-[5-(aminosulfonyl)pyridin-2-yl]-8-azabicyclo[3.2.1]oct-3-endo-yl}-2-[(4-fluoro-2-methylphenyl)oxy]-2-methylpropanamide]: the IC50 was under 200 nM.

In the case of `Cc1cc(F)ccc1OC(C)(C)C(=O)N[C@H]1C[C@H]2CC[C@@H](C1)N2c1ccc(S(C)(=O)=O)cc1` [Example 219, 2-[(4-fluoro-2-methylphenyl)oxy]-2-methyl-N-{8-[4-(methylsulfonyl)phenyl]-8-azabicyclo[3.2.1]oct-3-endo-yl}propanamide], the IC50 is under 200 nM.

As for `COc1cc(F)ccc1OC(C)(C)C(=O)N[C@H]1C[C@H]2CC[C@@H](C1)N2c1ccc(S(C)(=O)=O)cn1` [Example 220], the IC50 is under 200 nM.

With `COc1cc(F)ccc1OC(C)(C)C(=O)N[C@H]1C[C@H]2CC[C@@H](C1)N2c1ccc(S(N)(=O)=O)cn1` [Example 221, N-{8-[5-(aminosulfonyl)pyridin-2-yl]-8-azabicyclo[3.2.1]oct-3-endo-yl}-2-{[4-fluoro-2-(methyloxy)phenyl]oxy}-2-methylpropanamide], the IC50 was under 200 nM.

Take `COc1cc(F)ccc1OC(C)(C)C(=O)N[C@H]1C[C@H]2CC[C@@H](C1)N2c1ccc(S(C)(=O)=O)cc1` [Example 222, 2-{[4-fluoro-2-(methyloxy)phenyl]oxy}-2-methyl-N-{8-[4-(methylsulfonyl)phenyl]-8-azabicyclo[3.2.1]oct-3-endo-yl}propanamide]: the IC50 was under 200 nM.

Turning to `CC(C)(Oc1ccc(Cl)cc1F)C(=O)N[C@H]1C[C@H]2CC[C@@H](C1)N2c1ccc(S(C)(=O)=O)cc1` [Example 223, 2-[(4-chloro-2-fluorophenyl)oxy]-2-methyl-N-{8-[4-(methylsulfonyl)phenyl]-8-azabicyclo[3.2.1]oct-3-endo-yl}propanamide], the IC50 was under 200 nM.

Take `CC(C)(Oc1ccc(F)cc1F)C(=O)N[C@H]1C[C@H]2CC[C@@H](C1)N2c1ccc(S(C)(=O)=O)cc1` [Example 224, 2-[(2,4-difluorophenyl)oxy]-2-methyl-N-{8-[4-(methylsulfonyl)phenyl]-8-azabicyclo[3.2.1]oct-3-endo-yl}propanamide]: the IC50 is under 200 nM.

On to `CC(C)(Oc1cc(F)c(F)cc1Cl)C(=O)N[C@H]1C[C@H]2CC[C@@H](C1)N2c1ccc(S(C)(=O)=O)cc1` [Example 225, 2-[(2-chloro-4,5-difluorophenyl)oxy]-2-methyl-N-{8-[4-(methylsulfonyl)phenyl]-8-azabicyclo[3.2.1]oct-3-endo-yl}propanamide], for which the IC50 was under 200 nM.

For the compound `CC(C)(Oc1ccc(F)c(Cl)c1)C(=O)N[C@H]1C[C@H]2CC[C@@H](C1)N2c1ccc(S(C)(=O)=O)cn1` [Example 226, 2-[(3-chloro-4-fluorophenyl)oxy]-2-methyl-N-{8-[5-(methylsulfonyl)pyridin-2-yl]-8-azabicyclo[3.2.1]oct-3-endo-yl}propanamide], the IC50 was under 200 nM.

On to `CC(C)(Oc1ccc(F)c(Cl)c1)C(=O)N[C@H]1C[C@H]2CC[C@@H](C1)N2c1ccc(S(N)(=O)=O)cn1` [Example 227, N-{8-[5-(aminosulfonyl)pyridin-2-yl]-8-azabicyclo[3.2.1]oct-3-endo-yl}-2-[(3-chloro-4-fluorophenyl)oxy]-2-methylpropanamide], for which the IC50 was under 200 nM.

For `CC(C)(Oc1ccc(F)c(Cl)c1)C(=O)N[C@H]1C[C@H]2CC[C@@H](C1)N2c1ccc(S(C)(=O)=O)cc1` [Example 228, 2-[(3-chloro-4-fluorophenyl)oxy]-2-methyl-N-{8-[4-(methylsulfonyl)phenyl]-8-azabicyclo[3.2.1]oct-3-endo-yl}propanamide], the IC50 is under 2000 nM.

As to `CC(C)(Oc1ccc(Cl)cc1F)C(=O)N[C@H]1C[C@H]2CC[C@@H](C1)N2c1ccc(S(C)(=O)=O)cn1` [Example 229, 2-[(4-chloro-2-fluorophenyl)oxy]-2-methyl-N-{8-[5-(methylsulfonyl)pyridin-2-yl]-8-azabicyclo[3.2.1]oct-3-endo-yl}propanamide], the IC50 is under 200 nM.

With `CC(C)(Oc1ccc(F)cc1)C(=O)N[C@H]1C[C@H]2CC[C@@H](C1)N2c1ccc(S(C)(=O)=O)cn1` [Example 230, 2-[(4-fluorophenyl)oxy]-2-methyl-N-{8-[5-(methylsulfonyl)pyridin-2-yl]-8-azabicyclo[3.2.1]oct-3-endo-yl}propanamide], the IC50 is under 2000 nM.

Values taken from US8163771B2, “11 β-HSD1 modulators” (Exelixis, Inc., priority 2008, dated 2012).
